In publication PMC3391680, “Selective and Specific Inhibition of the Plasmodium falciparum Lysyl-tRNA Synthetase by the Fungal Secondary Metabolite Cladosporin” (Cell Host & Microbe, 2012):
Read-outs that look alike come from different tables or passages of the source. *1 amine or outer side, *2 acyl side, *3 side chain or, on linkers, in order; H or OH if unused. Where a SMILES comes first, the peptide text is derived from it. [ ]: non-standard residue; d: D form. X1 = CC(C)([C@@H]1CO1)n1cc([C@@H](O)[C@H](CC(=O)[*:2])N[*:1])c2ccccc21; NMeLeu(5-OH,4R) = CN[C@@H](C[C@@H](C)CO)C(=O)O; Nle(4R-Me-5-ene) = C=C[C@H](C)C[C@H](N)C(=O)O; Phe(βR-OMe) = CO[C@H](c1ccccc1)[C@H](N)C(=O)O; NMeL = CN[C@@H](CC(C)C)C(=O)O

Experiments:
[1] = tested on: T1, Plasmodium falciparum Dd2; test: microbe, parasite or virus in culture; design: species or system Plasmodium falciparum Dd2 in human erythrocytes; Asexual blood-stage parasite proliferation, SYBR Green I DNA fluorescence; settings: DD2, Erythrocyte, 72 h, read-out: IC50 values (nM)
T1 construct: Dd2
Protocol: Powershot G10 camera attached to the microscope and imported in Adobe Photoshop and Illustrator for image sizing and figure generation, respectively. SYBR Green cell proliferation assay. Compounds were tested for activity against asexual blood stage parasites using a previously described screening method (Plouffe et al., 2008). […] Toxoplasma gondii culturing and assay methods. The tachyzoite stage of Toxoplasma gondii (RH1, GFP-luc) was maintained by serial passage in human foreskin fibroblasts (HFF) cultured in Hank’s Buffered Salt Solution (HBSS) supplemented with 10% FBS, 2 mM L-glutamine, and 100 μg penicillin/100 μg streptomycin per milliliter maintained at 37 °C and 5% CO2. Parasites were harvested for use in assays by syringe lysis of infected HFF monolayers. Parasites were then centrifuged at 1,200 × g for 6 min and resuspended in HBSS supplemented with 10 mM Hepes, pH 7.0, and 1% (v/v) dialyzed FBS. All buffers were filter sterilized by passage through a […] Millipore Syringe Filter. Approximately 50,000 parasites and 5,000 HFF cell were incubated with compounds for 48 hours at 37 °C. Parasite and host cell proliferation rates were then determined using Bright-Glo® and CellTiter-Glo® (Promega). Maintenance, synchronization and imaging of erythrocytic stage P. falciparum cultures. A clonal stock of the P. falciparum line Dd2 (parental clone) was established by limiting dilution from a Dd2 isolate (MRA-156) obtained from the Malaria Research and Reference Reagent Resource Center (MR4; American Type Culture Collection), and used throughout these studies. All P. falciparum parasites were cultured in human erythrocytes and complete culturing media (CM) as previously described (Dharia et al., 2009). Highly synchronous cultures were achieved using the sorbitol synchronization method (Lambros and Vanderberg, 1979). Visualization of parasites were performed on Giemsa-stained thin blood smears under a 100x oil immersion objective on a Zeiss Primo Star light microscope. Digital images were captured using a Canon

[2] = biological target: T2, P. falciparum cytosolic lysyl-tRNA synthetase (PfKrs1) (Plasmodium falciparum, UniProt Q8IDJ8); test: Transcreener AMP fluorescence polarization aminoacylation assay with recombinant enzyme; assay type: biochemical
T2 construct: gene PF3D7_1350100; recombinant PF13_0262, codon-optimized, in pET-28a(+), expressed in E. coli and purified
T2 sequence (Q8IDJ8 entry or part of it): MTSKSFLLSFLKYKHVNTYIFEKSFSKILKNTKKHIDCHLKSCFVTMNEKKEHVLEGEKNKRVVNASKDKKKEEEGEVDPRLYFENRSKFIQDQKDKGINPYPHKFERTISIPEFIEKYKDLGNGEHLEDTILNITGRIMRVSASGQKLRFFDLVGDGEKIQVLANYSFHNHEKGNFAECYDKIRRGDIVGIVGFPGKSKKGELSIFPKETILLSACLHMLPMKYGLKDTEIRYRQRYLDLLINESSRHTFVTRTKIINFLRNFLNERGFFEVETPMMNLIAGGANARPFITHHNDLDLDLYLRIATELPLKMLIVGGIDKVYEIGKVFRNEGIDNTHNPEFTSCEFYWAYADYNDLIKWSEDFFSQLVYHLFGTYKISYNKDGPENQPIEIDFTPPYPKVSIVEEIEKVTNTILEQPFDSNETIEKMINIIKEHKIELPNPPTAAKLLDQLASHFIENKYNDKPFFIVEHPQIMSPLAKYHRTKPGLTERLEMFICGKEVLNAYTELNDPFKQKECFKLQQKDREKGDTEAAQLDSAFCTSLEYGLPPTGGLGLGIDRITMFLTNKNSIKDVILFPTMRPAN

[3] = tested on: T3, Saccharomyces cerevisiae BY4743Δ8; test: microbe, parasite or virus in culture; design: Yeast growth inhibition, optical density at 600 nm, dose response; settings: synthetic media, no added lysine, read-out: Cladosporin IC50 (µM) Synthetic media
T3 construct: BY4743Δ8 (eight drug-resistance genes deleted: SNQ2, PDR5, YOR1, PDR1, PDR2, PDR3, YAP1, YRM1)
Protocol: SUPPLEMENTAL FIGURES Figure S1 | Cladosporin inhibition of S. cerevisiae wild type strain BY4743 and a drug efflux mutant strain BY4743Δ8, related to Figure 1. Yeast growth in the presence of cladosporin was measured by optical density at 600 nm (OD600) and the 30% inhibitory concentration (IC30) and 50% inhibitory concentration (IC50) of cell growth were determined. […] Data were collected from duplicate experiments, normalized with a DMSO control and expressed as the means±SD. A logistic regression curve fit algorithm on the recorded OD600 values was performed to determine the aforementioned IC30 and IC50 values. Strain BY4743Δ8, derived from BY4741 but deleted for eight genes involved in drug resistance (efflux pumps, SNQ2, PDR5, YOR1; transcription factors, PDR1, PDR2, PDR3, YAP1, YRM1) was incubated in 2.5% ethylmethanesulfonate until only 50% of the cells formed colonies. A total of 2 × 10^7 mutagenized CMB970 cells were plated on two 14 cm dishes with synthetic complete medium (0.7 g/l Difco Yeast Nitrogen Base without amino acids, 0.79 g/l MPbio CSM amino acid mixture, 2% glucose) containing 50 μM cladosporin. After 4 days, 37 resistant colonies appeared. […] Of these 37, ten colonies contained nonsynonymous mutations in the KRS1 open reading frame. […] Curves were calculated by taking the 16 hr OD600 measurements and applying a logistic regression curve fit. […]

[4] = biological target: T4, human lysyl-tRNA synthetase (human Krs1) (Homo sapiens, UniProt Q15046); test: Transcreener AMP fluorescence polarization aminoacylation assay with recombinant enzyme; weak inhibition; assay type: biochemical
T4 construct: gene KARS1; purified recombinant human enzyme (Origene TP300311)
T4 sequence (Q15046 2-597): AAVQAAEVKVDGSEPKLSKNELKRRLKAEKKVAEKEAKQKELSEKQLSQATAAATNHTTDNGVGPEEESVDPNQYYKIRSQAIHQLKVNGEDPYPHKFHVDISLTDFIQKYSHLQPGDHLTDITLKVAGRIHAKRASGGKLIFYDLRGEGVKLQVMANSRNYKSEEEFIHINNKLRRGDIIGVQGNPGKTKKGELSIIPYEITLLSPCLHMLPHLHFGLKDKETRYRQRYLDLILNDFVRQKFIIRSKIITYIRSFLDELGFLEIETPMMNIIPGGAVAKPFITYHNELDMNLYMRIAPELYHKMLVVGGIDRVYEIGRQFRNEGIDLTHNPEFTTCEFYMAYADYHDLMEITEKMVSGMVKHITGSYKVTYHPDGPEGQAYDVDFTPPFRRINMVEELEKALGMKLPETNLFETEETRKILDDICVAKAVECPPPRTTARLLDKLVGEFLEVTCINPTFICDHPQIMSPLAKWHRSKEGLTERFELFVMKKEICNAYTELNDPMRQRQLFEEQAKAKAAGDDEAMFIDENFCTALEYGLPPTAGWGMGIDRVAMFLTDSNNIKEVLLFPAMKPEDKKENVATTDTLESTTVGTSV

[5] = tested on: T3, Saccharomyces cerevisiae BY4743Δ8; test: microbe, parasite or virus in culture; design: Yeast growth inhibition, optical density at 600 nm, dose response; settings: rich media, no added lysine, read-out: Cladosporin IC50 (µM) Rich media
Protocol: SUPPLEMENTAL FIGURES Figure S1 | Cladosporin inhibition of S. cerevisiae wild type strain BY4743 and a drug efflux mutant strain BY4743Δ8, related to Figure 1. Yeast growth in the presence of cladosporin was measured by optical density at 600 nm (OD600) and the 30% inhibitory concentration (IC30) and 50% inhibitory concentration (IC50) of cell growth were determined. Assay plates seeded with the respective strains were grown in rich medium and incubated […] against a 12-point dilution series of cladosporin (0-200 µM). Data were collected from duplicate experiments, normalized with a DMSO control and expressed as the means±SD. A logistic regression curve fit algorithm on the recorded OD600 values was performed to determine the aforementioned IC30 and IC50 values. Strain BY4743Δ8, derived from BY4741 but deleted for eight genes involved in drug resistance (efflux pumps, SNQ2, PDR5, YOR1; transcription factors, PDR1, PDR2, PDR3, YAP1, YRM1) was incubated in 2.5% ethylmethanesulfonate until only 50% of the cells formed colonies. […] Of these 37, ten colonies contained nonsynonymous mutations in the KRS1 open reading frame. […] Curves were calculated by taking the 16 hr OD600 measurements and applying a logistic regression curve fit. […]

| SMILES | IC50 [1] | also measured |
| --- | --- | --- |
| O[C@@H](c1cc(C(F)(F)F)nc2c(C(F)(F)F)cccc12)[C@H]1CCCCN1 (racemic) [MFQ, mefloquine] | 9 nM |  |
| CCc1nc(N)nc(N)c1-c1ccc(Cl)cc1 [PYR, pyrimethamine] | > 10000 nM |  |
| C=C[C@H](C)C[C@@H]1NC(=O)[C@H](CC(C)C)N(C)C(=O)[C@H](C(C)C)NC(=O)[C@H]([C@H](OC)c2ccccc2)NC(=O)[C@H](C)NC(=O)[C@H](C[C@@H](C)CO)N(C)C(=O)C[C@@H]([C@H](O)c2cn(C(C)(C)[C@@H]3CO3)c3ccccc23)NC1=O [CycA, cyclomarin A] (cyclo(A[Phe(βR-OMe)]V[NMeL][Nle(4R-Me-5-ene)][X1][NMeLeu(5-OH,4R)])) | 48.8 ± 10.1 nM |  |
| O=C1C(O)=C([C@H]2CC[C@H](c3ccc(Cl)cc3)CC2)C(=O)c2ccccc21 [ATQ, atovaquone] | 0.8 ± 0.2 nM |  |
| C[C@H]1CCC[C@H](C[C@H]2Cc3cc(O)cc(O)c3C(=O)O2)O1 [cladosporin] |  | IC50 [2]: 0.061 µM; IC50 [3]: 18.4 µM; IC50 [4]: > 20 µM; IC50 [5]: 7.92 µM |
